# Source: US12396961B2, “Compounds and compositions for intracellular delivery of agents” (ModernaTX, Inc., priority 2015, dated 2025)
# Columns and labels:
# hEPO mRNA expression [1] = assay: hEPO levels in non-human primates; format: in vivo
# Procedure: FIG. 10 is a graph showing hEPO levels in non-human primates up to −50 h after administration of a nanoparticle composition containing Compound 4, compared to a composition containing MC3.
# The tolerability and efficacy of nanoparticle compositions to non-human primates is evaluated in Cynomolgus monkeys. Monkeys are administered an optimized nanoparticle composition including an mRNA encoding hEPO once weekly for four weeks. The levels of hEPO protein, mRNA, and cytokine profiles are measured using ELISA-based techniques before and 2, 6, 12, 24, 48, 72, and 120 hours after each administration.
# [2] = system: LDLr mRNA / Luc expression; assay: Expression (AUC) in LDLr−/− mice relative to KL22; format: in vivo; conditions: Table 7b
# [3] = system: GFP mRNA expression in liver cells; assay: Mouse liver immunohistochemistry (IHC) of GFP after GFP mRNA LNP; format: in vivo, CD-1 mouse; LDLR knockout mouse; conditions: i.v. 0.5 mpk; MC3: CD-1 mouse, 6h; Compound 4: LDLR knockout mouse, 8h
# Procedure: FIG. 11 is a pair of images comparing the results of a mouse liver immunohistochemistry (IHC) using mRNA expressing green fluorescent protein (GFP) after administration of nanoparticle compositions containing Compound 4 and MC3.
# FIG. 16 is a graph showing GFP levels in the livers of LDLR knockout mice at 30 min to 24 h after intravenous administration of an eGFP RNA in a lipid composition containing Compound 4. The liver GFP levels were determined via IHC. The square markers represent the number of GFP positive cells following administration of a dose of 0.1 mpk of the composition. The circular markers represent the number of GFP positive cells following administration of a dose of 0.5 mpk of the composition.
# [4] = system: luciferase (Luc) mRNA expression; assay: Luc expression (AUC) in CD-1 mice relative to MC3; format: in vivo
# Outline: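 CD-1 mice dosed at 0.5 mpk with nanoparticle compositions carrying luciferase mRNA; total light flux acquired by whole-body luminescent imaging 6 h after administration. Expression referenced to MC3-containing composition.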
# [5] = Lipid levels (clearance) in liver and spleen 48 hours after administration; format: in vivo, rats; conditions: rat liver, 48 h
# Procedure: Formulations were administered intravenously to rats (n=3 or 6) at a dosage of 0.2 mg/kg or 0.5 mg/kg (mpk) and hEPO levels measured at 3, 6, and 24 hour time points. After the 48 hour time point, livers and spleens were harvested and frozen.
# The amount of lipid in the liver and spleen 48 hours after administration of a nanoparticle composition was also measured. […] In contrast, approximately 60% of doses including MC3 or Compound 22 remained in the liver after 48 hours. Less than 3% of the dose remained in the spleen for each composition tested.
# [6] = Particle size and polydispersity index (Zetasizer Nano ZS); format: physicochemical; conditions: Table 1; for PDI: DOPE 40:20:38.5:1.5, Luc mRNA
# Outline: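 Particle size and polydispersity index were measured by dynamic light scattering on a Zetasizer Nano ZS in 1×PBS. Zeta potential was measured in 15 mM PBS.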
# [7] = Encapsulation efficiency of RNA (QUANT-IT RIBOGREEN RNA assay); format: physicochemical
# Excerpt: The efficiency of encapsulation of a therapeutic and/or prophylactic agent describes the amount of therapeutic and/or prophylactic agent that is encapsulated or otherwise associated with a nanoparticle composition after preparation, relative to the initial amount provided. The encapsulation efficiency is desirably high (e.g., close to 100%). The encapsulation efficiency may be measured, for example, by comparing the amount of therapeutic and/or prophylactic agent in a solution containing the nanoparticle composition before and after breaking up the nanoparticle composition with one or more organic solvents or detergents. Fluorescence may be used to measure the amount of free therapeutic and/or prophylactic agent (e.g., RNA) in a solution. […]
# For nanoparticle compositions including an RNA, a QUANT-IT™ RIBOGREEN® RNA assay (Invitrogen Corporation Carlsbad, CA) can be used to evaluate the encapsulation of an RNA by the nanoparticle composition. […] The fluorescence intensity can be measured using a fluorescence plate reader (Wallac Victor 1420 Multilablel Counter; Perkin Elmer, Waltham, MA) at an excitation wavelength of, for example, about 480 nm and an emission wavelength of, for example, about 520 nm. […]
# LDL-c = assay: LDL (LDL-c) levels in LDLr−/− mice after mRNA encoding the LDL receptor; format: in vivo, LDLR knockout mice; conditions: Compound 11 at 0.5 and 1 mpk
# hEPO mRNA expression [8] = assay: Expression of hEPO after intravenous administration to rats; format: in vivo; conditions: rats, 2 mpk, i.v. (Graph A); in words
# Procedure: PBS (phosphate buffered saline) is used as control.
# Formulations were prepared according to Table 5 and included mRNA encoding hEPO.
# […] After the 48 hour time point, livers and spleens were harvested and frozen.
# rats = assay: Tolerability / toxicity in rats dosed i.v. with hEPO mRNA LNP; format: in vivo; conditions: 2 mg/kg dose
smiles,measurement,setting,value
"CCCCCCCCCN(CCCCCCCCC)CCN(CCCCCCCCC)CC(=O)N1CCN(C(=O)CN(CCCCCCCCC)CCCCCCCCC)CC1 [Compound 4, 2-(Dinonylamino)-1-(4-(N-(2-(dinonylamino)ethyl)-N-nonylglycyl)piperazin-1-yl)ethan-1-one]",hEPO expression compared to MC3 (FIG. 10),hEPO mRNA expression [1],3 fold
same,"Lipid/KL22 AUC LDLr−/− mice 0.5 mpk, LDLr",[2],2.03
same,"GFP protein expression in liver cell types (IHC, FIG. 11)",[3],less protein expression in Kupffer cells
same,Lipid/MC3 AUC CD-1 mice 0.5 mpk,"[4]; Table 7b, Luc expression, CD-1 mice, 0.5 mpk",3.70
same,% dose remaining Rat liver (48 h),[5],37.82%
same,PDI,[6],0.120
"CCCCC/C=C\CCCCCN(CCCCC/C=C\CCCCC)CCN1CCN(CCN(CCCCCCCCCCCC)CCN(CCCCCCCCCCCC)CCCCCCCCCCCC)CC1 [Compound 25, N^1-(2-(4-(2-(Di((Z)-dodec-6-en-1-yl)amino)ethyl)piperazin-1-yl)ethyl)-N^1,N^2,N^2-tridodecylethane-1,2-diamine]",EE (%),"[7]; Table 1, DOPE 40:20:38.5:1.5, Luc mRNA",97.0%
same,Size (nm),"[6]; lipid:DOPE:Chol:PEG-DMG 40:20:38.5:1.5, Luc mRNA, MC3 standard formulation",90.0 nm
"CCCCCCCCCCCCN(CCCCCCCCCCCC)CCN1CCN(C(=O)CN(CCCCCCCCCCCC)CCN(CCCCCCCCCCCC)CCCCCCCCCCCC)CC1 [Compound 2, 2-((2-(Didodecylamino)ethyl)(dodecyl)amino)-1-(4-(2-(didodecylamino)ethyl)piperazin-1-yl)ethan-1-one]",EE (%),"[7]; Table 1, marked *: lipid:DSPC:Chol:PEG-DMG 50:10:38.5:1.5",96%
"CCCCCCCCCCCCN(CCCCCCCCCCCC)CCN(CCCCCCCCCCCC)CC(=O)N1CCN(C(=O)CN(CCCCCCCCCCCC)CCCCCCCCCCCC)CC1 [Compound 11, 2-(Didodecylamino)-1-(4-(N-(2-(didodecylamino)ethyl)-N-dodecylglycyl)piperazin-1-yl)ethan-1-one]",LDL-c levels in LDLR knockout mice (FIG. 9B),LDL-c,found to drop
same,hEPO expression in rats (FIG. 8),hEPO mRNA expression [8],comparable to MC3
same,Lipid/MC3 Luc CD-1 (mice),"[4]; Luc expression relative to MC3, CD-1 mice",1.03
same,Tolerability / toxicity in rats (FIG. 8),rats,improved tolerability as compared to KL22
same,PDI,[6],0.099
